{
  "source": "patent US20240197753A1",
  "about": "“PHARMACEUTICAL COMPOSITION FOR IMPROVING CARDIAC FUNCTION” (OSAKA UNIVERSITY, priority 2021, published 2024)",
  "origin": "cited, not measured here",
  "data": [
    {"compound": "O=C(O)COc1cccc2c1CCC=C2CCO/N=C(\\c1ccccc1)c1cccnc1", "note": "[ONO-1301, ({5-[2-({[(1E)-phenyl(pyridin-3-yl)methylene]amino}oxy)ethyl]-7,8-dihydronaphthalen-1-yl}oxy)acetic acid]", "values": [
      {"measurement": "no-observed-adverse-effect level (blood ONO-1301 concentration)", "setting": "oral dosing phase I study", "result": 23.69, "unit": "ng/mL"},
      {"measurement": "no-observed-effect level (blood ONO-1301 concentration)", "setting": "oral dosing phase I study", "result": 15.61, "unit": "ng/mL"},
      {"measurement": "Safety margin (efficacy: platelet aggregation inhibition; side effects: epigastric pain, fever, cold sweat, diarrhea, etc.)", "setting": "oral, Phase I clinical trials", "result": "narrow"}
    ]}
  ]
}
